Experimental data published in patent US20130274651A1, “SYSTEM AND METHOD FOR IMPROVING OUTCOME OF CEREBRAL ISCHEMIA” (priority 2012, published 2013).
“Also recorded” adds a separate entry of the source.

Key:
[1] = Tolerability of intranasal delivery in humans (normal volunteers); assay type: in vivo, human; settings: high concentration
Description: While nitric oxide may be given intranasally and without inhalation into the lungs to intubated, comatose individuals the tolerability of intranasal nitric oxide in awake humans has not previously been investigated. The inventors have tested the effect of nitric oxide in humans (normal volunteers) during intranasal delivery. […] Therefore it can easily be tolerated by awake, non-intubated patients.

[2] = Cerebral blood flow by cortical laser Doppler during intranasal nitric oxide in intubated rodents; assay type: in vivo
Method: (§1) In intubated rodents, the inventors have shown that cerebral blood flow increases by 100% within 60 minutes of intranasal nitric oxide delivery.

[3] = CT perfusion scanning in intubated patients with cerebral ischemia treated with intranasal non-inhaled nitric oxide; assay type: in vivo, human
[4] = Carotid artery occlusion model, Speckle laser Doppler, intubated rodents; assay type: in vivo
Method: as §1
Increase in cerebral blood flow is attributable to focal intranasal or intra-oral effect of nitric oxide rather than to systemic absorption of the gas. […] The effect on cerebral blood flow during intranasal delivery of nitric oxide with concomitant air inhalation into the lungs is therefore a focal effect on intranasal and intracranial vasculature attributable specifically to nitric oxide. […] In a non-intubated patient, nitric oxide inhalation can be prevented by occluding the nasal cavity anterior or posterior to the site of gas delivery. This is achieved by means of an anterior occlusion device such a rigid member, an expandable member, a compressible member, a sponge, a porous member, a plug, a balloon, foam and/or combinations of the foregoing, which prevent inhalation through the nostrils while maintaining a high concentration of nitric oxide in the nasal cavity. A non-intubated patient may be allowed to inhale air into the lungs during nitric oxide delivery into the nasal cavity by an optional central lumen with the distal orifice beyond the sites of nasal gas delivery and occlusion device.

[N]=O [nitric oxide]
tolerability of intranasal delivery without inhalation [1]: tolerated at high concentration | cerebral blood flow change (FIG. 8) ([2]; cortical laser Doppler, during intranasal administration): doubling of cerebral blood flow | cerebral blood flow increase ([2]; within 60 minutes of intranasal delivery): 100% | Cerebral Blood Flow, Changes in ACA Watershed ([3]; Post Rx): Normalization, | Mean Transit Time, Changes in ACA Watershed ([3]; Post Rx): Normalization | Mean Transit Time, Left Hemisphere (ischemic) ([3]; Post Rx): 6.0 s | Mean Transit Time, Right Hemisphere (normal) ([3]; Post Rx): 6.1 s | Cerebral Blood Flow, increase in perfusion on L (ACA Watershed) ([3]; Post Rx vs Pre Rx, left ischemic hemisphere): 67% increase in | cerebral perfusion, CT perfusion scanning ([3]; intubated patients / human with focal cerebral ischemia, before vs after treatment): improvement in cerebral perfusion; also recorded: augmentation of cerebral perfusion and normalization of regional perfusion abnormalities | perfusion in the ischemic hemisphere ([4]; during carotid occlusion and following ligature release): perfusion is improved in the ischemic hemisphere | cerebral ischemia (FIG. 9) ([4]; intubated rodents, Speckle laser Doppler tracing): reduction of cerebral ischemia
